Values of other authors, collected in patent US20050147665A1, “Pharmaceutical and nutritional compositions” (Laxdale Limited, priority 1999, published 2005).

Conditions: patients with end-stage renal disease; lowering homocysteine by treatment with folic acid

Nc1nc2ncc(CNc3ccc(C(=O)N[C@@H](CCC(=O)O)C(=O)O)cc3)nc2c(=O)[nH]1 [folic acid]
elevations of DGLA and AA levels: significant in the cases of DGLA and AA | elevations of EPA and DHA levels: not significant in the cases of EPA and DHA
